Values of other authors, collected in patent publication US20040062739A1, “Use of carbohydrates to improve skin barrier function” (SOCIETE L'OREAL S.A., priority 2000, published 2004).

Columns and labels:
Set-up in all cases: key: −: no activity; ε, +, ++: specific activity; ε, +, ++: specific activity; ε, +, ++: specific activity
Conditions in all cases: glycosidase sold by Clonezyme; cited from earlier work
GLY-07 = test system: GLY-07
GLY-09 = test system: GLY-09
GLY-01 = test system: GLY-01
GLY-08 = test system: GLY-08
GLY-04 = test system: GLY-04
GLY-02 = test system: GLY-02
GLY-05 = test system: GLY-05
GLY-06 = test system: GLY-06
GLY-03 = test system: GLY-03
GLY-10 = test system: GLY-10

Row | SMILES | substrate specificity GLY-07 (GLY-07) | substrate specificity GLY-09 (GLY-09) | substrate specificity GLY-01 (GLY-01) | substrate specificity GLY-08 (GLY-08) | substrate specificity GLY-04 (GLY-04) | substrate specificity GLY-02 (GLY-02) | substrate specificity GLY-05 (GLY-05) | substrate specificity GLY-06 (GLY-06) | substrate specificity GLY-03 (GLY-03) | substrate specificity GLY-10 (GLY-10)
1 | CC(=O)NC1C(O)CC(Oc2ccc([N+](=O)[O-])cc2)(C(=O)O)OC1C(O)C(O)CO [α-D-N-acetylneuramide] | − | − | − | − | − | − | − | − | − | −
2 | OC[C@H]1O[C@H](O)[C@H](O)[C@@H](O)[C@H]1O [α-D-galactose] | − | − | − | − | − | − | − | − | − | +
3 | OC[C@H]1O[C@H](O)[C@H](O)[C@@H](O)[C@@H]1O [α-D-glucose] | ++ | ++ | ++ | ++ | ++ | ++ | ++ | ++ | ++ | −
4 | OC[C@H]1O[C@H](O)[C@@H](O)[C@@H](O)[C@@H]1O [α-D-mannose] | − | − | − | − | − | − | − | − | − | −
5 | C[C@@H]1O[C@@H](O)[C@@H](O)[C@H](O)[C@@H]1O [α-L-fucose] | − | − | − | − | − | − | − | − | − | −
6 | C[C@@H]1O[C@@H](O)[C@H](O)[C@H](O)[C@H]1O [α-L-rhamnose] | − | − | − | − | − | − | − | − | − | −
7 | CC(=O)NC1C(OC2C(CO)OC(Oc3ccc([N+](=O)[O-])cc3)C(NC(C)=O)C2O)OC(CO)C(O)C1O [β-D-N-acetylch obloside] | − | − | − | − | − | − | − | − | − | −
8 | OC[C@H]1O[C@H](O[C@H]2[C@H](O)[C@@H](O)[C@H](O)O[C@@H]2CO)[C@H](O)[C@@H](O)[C@@H]1O [β-D-cellobiose] | + | ε | − | ε | ε | ++ |  | + | ε | −
9 | C[C@H]1O[C@@H](O)[C@H](O)[C@@H](O)[C@H]1O [β-D-fucose] | ++ | ++ | − | + | ++ | ++ | ++ | ++ | ++ | −
10 | OC[C@H]1O[C@@H](O)[C@H](O)[C@@H](O)[C@H]1O [β-D-galactose] | ε | − | − | + | + | ++ | + | ε | ε | −
11 | OC[C@H]1O[C@@H](O)[C@H](O)[C@@H](O)[C@@H]1O [β-D-glucose] | − | − | − | − | − | − | − | − | − | −
12 | O=C(O)[C@H]1O[C@@H](Oc2ccc([N+](=O)[O-])cc2)[C@H](O)[C@@H](O)[C@@H]1O [β-D-glucuronide] | ε | − | − | − | − | − | − | − | − | −
13 | OC[C@H]1O[C@@H](O[C@H]2[C@H](O)[C@@H](O)[C@H](O)O[C@@H]2CO)[C@H](O)[C@@H](O)[C@H]1O [β-D-lactose] | ε | − | − | − | − | + | − | + | ε | −
14 | OC[C@H]1O[C@@H](O)[C@@H](O)[C@@H](O)[C@@H]1O [β-D-mannose] | + | + | − | − | − | ε | − | + | − | −
15 | O[C@@H]1[C@@H](O)[C@H](O)OC[C@H]1O [β-D-xylose] | ε | ε | ε | ε | ε | + | ε | ε | − | −
16 | C[C@@H]1O[C@H](O)[C@@H](O)[C@H](O)[C@@H]1O [β-L-fucose] | − | − | − | − | − | − | − | − | − | −
